Patent US6803382B2, “Angiogenesis inhibitors and pharmaceutical and cosmetic use thereof” (Galderma Research & Development, S.N.C., priority 2001, dated 2004)

What was measured:
Human MetAP-2 = molecular target: T1, Human MetAP-2 (Homo sapiens, UniProt P50579); assay: Inhibition of human MetAP-2 (recombinant enzyme, Met-Ala-Ser substrate); format: biochemical; settings: recombinant MetAP-2, substrate Met-Ala-Ser 1 mM, 37° C., Hepes pH 7.4, 0.5 mM CoCl2
T1 construct: made in house
Experimental: By way of example, the biological activity of the compounds is evaluated by measuring their inhibitory activity on methionine aminopeptidase MetAP-2 (Li, X., Chang, Y-H. Biochem. Biophys. Res. Comm. 1996, 227, 152).
The biological activity is characterized in this system by determining the concentration of compound required to inhibit 50% of the enzymatic activity (IC50). The test protocol used is described in Example 13 of the present patent application.
a) Measurement of the Inhibition of Human MetAP-2
Recombinant MetAP-2 is obtained and purified according to the method described by Li and Chang (Li, X.; Chang, Y-H. Biochem. Biophys. Res. Comm. 1996, 227, 152).
The tests are carried out in buffer A (Hepes buffer, 10 mM, pH 7.4, 0.5 mM CoCl2 containing 10% glycerol) using the peptide Met-Ala-Ser as substrate (Km=0.7 mM).
a. The enzymatic activity is measured as follows: the substrate solution is added to a suitable amount of enzyme such that the final concentration is 1 mM, and the mixture is incubated at 37° C. for 10-30 minutes. The reaction is quenched by adding 100 mM EDTA solution or by heating in a boiling water bath for two minutes.
b. The N-terminal methionine released is quantified by measuring the absorbance at 450 nm (A450) by incubating for 30-60 minutes at 37° C. with the following coloured reagent: buffer B (Hepes buffer, 10 mM, pH 7.4) (Ben-Bassat A.; Bauer K.: Chang S. Y. et al., J. Bacteriol. 1987, 169, 751-757), containing 70 μg/mL of amino acid oxidase, 10 μg/mL of horseradish peroxidase and 1 mM of o-dianisidine. The activities are expressed as mmol of methionine produced, using the conversion factor of 1 mmol of methionine/mL=8.6A450
Determination of the IC50
The IC50 values are determined by incubating the enzyme and its substrate (using the experimental conditions described above) with increasing concentrations of inhibitor.
The control is 5-methoxy-4-[2-methyl-3-(3-methylbut-2-enyl)oxiranyl]-1-oxaspiro[2.5]octan-6-yl 4-methoxycinnamate described in the publication by Han et al., Bioorganic & Medicinal Chemistry Letters, 2000, 10, 39-43.

[1] = test system: Endothelial Cells Isolated from the Vein of Umbilical Cords; assay: Inhibition of endothelial cell proliferation by DNA synthesis reinitiation (b-Fgf, tritiated thymidine); format: cell-based; settings: b-Fgf-stimulated tritiated thymidine incorporation, 24 h at 37° C., serum free medium, IC50 determined graphically
Experimental: The anti-angiogenic activity of the compounds according to the invention may also be measured by means of their capacity to inhibit the proliferation of endothelial cells. This activity is determined in Example 13 of the present patent application.
b) Measurement of the Inhibition of the Proliferation in Endothelial Cells Isolated from the Vein of Umbilical Cords (Prepared at the Laboratory) by DNA Synthesis Reinitiation
The cells are seeded in complemented SFM medium (Gibco). When the cells reach the confluence, the growth is stopped by 2 washes in serum free medium and handing-over in serum free medium for 24 h. After trypsination, they are seeded in 48 wells plates: 50.000 cells per well in 500 μl.
The reinitiation of DNA synthesis is performed 6 hours after, in presence of 50 μg/ml b-Fgf by well with increasing amounts of inhibitor to be tested in the serum free medium and containing the tritiated thymidine (b-Fgf is prepared at the laboratory).
The cells are incubated 24 h at 37° C. and the radioactivity is measured with a Wallac counter. Each test is performed in duplicate and the result is the average of the counted number of cpms. The curve showing measured radioactivity function to increasing amount of inhibitors allows to determine graphically the value of IC50.

T1 sequence (P50579 whole entry): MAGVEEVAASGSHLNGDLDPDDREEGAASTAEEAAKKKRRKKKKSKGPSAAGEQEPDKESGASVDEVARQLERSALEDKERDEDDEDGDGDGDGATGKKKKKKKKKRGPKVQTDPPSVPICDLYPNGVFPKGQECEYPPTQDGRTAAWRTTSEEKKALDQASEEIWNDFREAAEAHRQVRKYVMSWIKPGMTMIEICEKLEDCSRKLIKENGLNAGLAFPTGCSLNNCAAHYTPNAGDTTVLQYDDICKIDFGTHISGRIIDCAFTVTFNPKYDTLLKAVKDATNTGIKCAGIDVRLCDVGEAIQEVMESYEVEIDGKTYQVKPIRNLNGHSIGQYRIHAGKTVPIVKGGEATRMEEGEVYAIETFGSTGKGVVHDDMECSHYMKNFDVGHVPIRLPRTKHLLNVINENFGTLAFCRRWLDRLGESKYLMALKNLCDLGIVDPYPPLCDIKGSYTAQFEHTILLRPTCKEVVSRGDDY

Row | SMILES | IC50 (Human MetAP-2) [nM] | IC50 [1] [nM] | IC50 ([1]; Endothelial cell) [nM]
1 | COc1ccc(C=CC(=O)OC2CCC3(CO3)C(C3(C)OC3CC=C(C)C)C2OC)cc1 (centres unmarked) [Control, 5-methoxy-4-[2-methyl-3-(3-methylbut-2-enyl)oxiranyl]-1-oxaspiro[2.5]octan-6-yl 4-methoxycinnamate] | 35 | 10 | –
2 | COc1ccc(/C=C/C(=O)O[C@@H]2CC[C@]3(CO3)[C@@H](/C(C)=C/CCC(C)C)[C@@H]2OC)cc1 [Example 2] | 15 | – | 1
3 | CO[C@@H]1[C@H](OC(=O)/C=C/C=C/C=C/C=C/C(=O)O)CC[C@]2(CO2)[C@H]1[C@@]1(C)O[C@@H]1CC=C(C)C [Fumagillin] | 10 | – | –
